Reference: PMC9108603, “Microbial Metabolite Inspired β‐Peptide Polymers Displaying Potent and Selective Antifungal Activity” (Advanced Science, 2022)
Converted amounts (≈) assume the structure as drawn.

Experiments:
various mammalian cells = experiment: Cytotoxicity, MTT assay, summary over cell types; assay type: cell-based; conditions: HUVEC, RAW264.7, LO2, COS7, NCM‐460, 24 h, read-out: IC50 for cells other than fibroblast (range)
Method: Cytotoxicity assay. Cytotoxicity tests were performed on NIH 3T3 fibroblast cells, endothelial cells (HUVEC), macrophage (RAW264.7), liver cells (LO2), kidney cells (COS7) and enterocyte (NCM-460) using MTT assay. Cells were cultured in DMEM supplemented with 10% FBS, 5% penicillin, 2 mM L-glutamine and incubated at 37 °C in 5% CO 2. Cells were harvested and seeded onto 96-well plates at a density of 1.0 × 10^4 cells per well and incubated for 24 h. On each plate, wells containing growth medium only and cells in growth medium without any antifungal agent were used as the negative and positive control, […]
concentrations ranging from 800 to 1.6 μg/mL. Medium in each cell-containing well was replaced with 100 μL of the corresponding polymer solution, and the plates were incubated at 37 °C for 24 h. Then, the solution in each well was switched to 100 µL MTT solution (1 mg/mL) and the plate was incubated in the dark at 37 °C for 4 h. […] Then 85 µL of the supernatant from each well was transferred to the corresponding well in a new plate, followed by absorbance measurement at 570 nm on a plate reader. […] The percentage of cell viability in each test well, relative to the positive control (which defines 100%) w as calculated from [% fibroblast growth = (A polymer – Ablank)/(Acontrol – A blank) × 100]. […]

[1] = system: Gram‐positive and Gram‐negative bacteria; experiment: Antibacterial MIC test, summary over six bacteria; assay type: cell-based; conditions: S. aureus, S. epidermidis, B. subtilis, E. coli, A. baumannii, K. pneumoniae
From the text: aforementioned antifungal assay. Gram-positive bacteria ( S. aureus ATCC 6538, S.

[2] = system: C. albicans biofilm formation; experiment: Inhibition of biofilm formation (MTT); assay type: cell-based, Candida albicans; conditions: RPMI, 37 °C, 48 h, inhibits 80% of biofilm formation
Method: fresh non-treated cell suspension was used as a control. The bright field and FITC fluorescence were collected under 100× oil immersion lenses, with representative areas in the images electronically amplified sixfold.
Anti-biofilms. This study was conducted in 96-well plates (flat bottom and tissue-culture treated) by following the reported protocol with slight modifications. On each plate, wells containing RPMI only and cells in medium without any antifungal agent were used as the negative and positive control, respectively.
For biofilm formation: Freshly cultured fungal cells were collected to prepare the working suspension at 1.0 × 10^6 CFU/mL in RPMI. A two-fold serial dilution for each antifungal agent was prepared using a corresponding medium in a 96-well plate to give 100 µL of polymer solution in each well. 100 µL of the working suspension was added to each […]
followed by addition of 100 µL MTT solution (1 mg/mL). The MTT assay protocol was the same as the above mentioned protocol in fibroblast cell toxicity assay. This value was calculated from [% biofilm growth = (A polymer – Ablank)/(Acontrol – Ablank) × 100] and plotted against polymer concentration to give the dose-response graphs for inhibition of biofilm formation for each antifungal agent. The SMIC 80 value is the minimum concentration of a given agent that is necessary to inhibit 80% of fungal biofilm formation. […]

BALB/c mice eyes = assay type: in vivo, mouse; conditions: 15 mg mL^−1 eye drops every 5 min for 1 h, then every 30 min for 7 h; male BALB/c, n = 3
Method: Medicine (Accreditation number of the laboratory: SHDSYY-2021-1729). The experiment
method. […] AmpB was
(2.5% DMSO in final solution).
The organs (kidney, liver, and
14th day for histological analysis and blood biochemistry analysis.
30 min during the next 7 h.
C. albicans biofilm formation on contact lenses. The contact lenses (Biomedic ®, Cooper
Then the discs were transferred to a
and incubated at rt with shaking at 100 rpm. After 6 hours of incubation, the suspension was […]

C. albicans (K1 strain) [3] = experiment: Mitochondrial membrane potential (JC-1); assay type: cell-based, Candida albicans; conditions: 50 μg/mL PDAP20, 2 h, 3.0 × 10^6 CFU/mL; green = early stage of apoptosis
Method: NAC concentration without affecting the normal cell growth. Wells containing cells in RPMI and 40 mM H 2O2 was used as positive controls. Cell suspension of C. albicans (K1 strain) at 6.0 × 10^6 CFU/mL was treated with 20 μM 2,7-dichlorodi-hydrofluorescein diacetate (DCFHDA) for 20 min. Then 50 µL of the cell suspension was added to each well, except the blank control (RMPI containing DCFHDA without cells). The fluorescence intensity of the induced ROS production was measured every 30 min using a plate reader at λ ex = 485 nm and λem = 530 nm. The confocal observation of ROS production was conducted after C. albicans (K1 strain) suspension at 3.0 × 10^6 CFU/mL was incubated with 50 μg/mL CPM-PDAP 20 for 2 h. […]
(§1) Detection of mitochondrial membrane potential. Changes in mitochondrial membrane potential in C. albicans after incubation with PDAP 20 were analyzed using JC-1 as previously described. Mitochondrial membrane potential was detected with the fluorescent dye JC-1, which exists as aggregates (red) in normal cells with polarized mitochondria, whereas exists as monomers (green) in apoptotic cells with depolarized mitochondria. […]
(§2) DNA fragmentation assay. Apoptosis induced DNA fragments in C. albicans cells were analyzed using the TdT-mediated dUTP Nick-End Labeling (TUNEL) method. […]

C. albicans (K1 strain) [4] = experiment: DNA fragmentation assay (TUNEL); assay type: cell-based, Candida albicans; conditions: 50 μg/mL PDAP20, 8 h, 3.0 × 10^6 CFU/mL; late stage of apoptosis
Method: NAC concentration without affecting the normal cell growth. Wells containing cells in RPMI and 40 mM H 2O2 was used as positive controls. Cell suspension of C. albicans (K1 strain) at 6.0 × 10^6 CFU/mL was treated with 20 μM 2,7-dichlorodi-hydrofluorescein diacetate (DCFHDA) for 20 min. Then 50 µL of the cell suspension was added to each well, except the blank control (RMPI containing DCFHDA without cells). The fluorescence intensity of the induced ROS production was measured every 30 min using a plate reader at λ ex = 485 nm and λem = 530 nm. […]
as §1, §2
fresh non-treated cell suspension was used as a control. The bright field and FITC fluorescence were collected under 100× oil immersion lenses, with representative areas in the images electronically amplified sixfold. […]

| Compound | IC50 (various mammalian cells) | MIC against the six bacteria (summary) [1] | Concentration that resists biofilm formation (SMIC80) [2] | Corneal histology (H&E) after topical administration (BALB/c mice eyes) | Mitochondrial membrane potential, JC‐1 stain (C. albicans (K1 strain) [3]) | DNA fragmentation, TUNEL (C. albicans (K1 strain) [4]) |
| --- | --- | --- | --- | --- | --- | --- |
| C[C@@H]1[C@H](O)[C@@H](C)/C=C/C=C/C=C/C=C/C=C/C=C/C=C/[C@H](O[C@@H]2O[C@H](C)[C@@H](O)[C@H](N)[C@@H]2O)C[C@@H]2O[C@](O)(C[C@@H](O)C[C@@H](O)[C@H](O)CC[C@@H](O)C[C@@H](O)CC(=O)O[C@H]1C)C[C@H](O)[C@H]2C(=O)O [AmpB, amphotericin B] | 8.8 to 128 µg/mL (≈ 9.52 to 139 µM) | – | – | – | – | – |
| poly(DL‐diaminopropionic acid) [PDAP20] | – | greater than 50 µg mL^−1 | 6.3 µg/mL | no obvious toxicity | cytosol green fluorescence | strong green cytosol fluorescence |
